As a reminder, the IC50 is the concentration that inhibits the measured activity by half.

One experiment addresses MCL-1 (Homo sapiens (Human), UniProt Q07820). Kind of experiment: Cell free Mcl-1:Bim affinity assay (fluorescence polarization competition). The format is binding. The conditions noted are these: 15 nM MCL-1, 5 nM FITC-Bim, 1 hour at room temperature, read-out: BIM_Ki. In a few lines: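 Compounds competed with FITC-labelled Bim peptide (5 nM) for MCL-1 (15 nM) in HEPES/NaCl buffer with 1% DMSO, 1 h at room temperature. Fluorescence polarization (535 nm emission) gave % inhibition versus DMSO and positive controls; IC50 from 10-point curves, converted to Ki by the Nikolovska-Coleska equation.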
A general note: Polarisation of emitted light reports the rotation of a fluorescent probe.

A further experiment concerns H929 cells. Kind of experiment: Cell viability assay (H929 10 FBS). As to conditions: Homo sapiens, NCI-H929, 24 hours, read-out: H929_10FBS IC50. The format is cell-based. In a few lines: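 H929 cells, 4000/well, in RPMI 1640 with 10% FBS, sodium pyruvate, HEPES and glucose were exposed to compound 24 h at 37 °C. Viability read as luminescence after 30-60 min at RT with CellTiter-Glo or ATPlite 1 Step.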

Molecules are shown by their SMILES. Where two headings read alike, the source gives them in different places. Bounds are passed on as bounds.

MCL-1, sequence (Q07820 whole entry): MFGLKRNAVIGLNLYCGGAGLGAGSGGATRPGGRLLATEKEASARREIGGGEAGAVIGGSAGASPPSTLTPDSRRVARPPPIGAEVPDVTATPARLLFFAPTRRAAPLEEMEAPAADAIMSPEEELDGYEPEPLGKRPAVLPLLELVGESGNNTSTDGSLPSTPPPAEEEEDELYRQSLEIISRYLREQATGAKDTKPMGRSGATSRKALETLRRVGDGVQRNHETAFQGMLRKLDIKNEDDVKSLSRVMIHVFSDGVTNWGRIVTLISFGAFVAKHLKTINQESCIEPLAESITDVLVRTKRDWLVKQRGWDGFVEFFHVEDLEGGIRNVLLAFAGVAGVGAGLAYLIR

Turning to `CC(=O)NS(=O)(=O)c1ccc2c(c1)N(CC1CCC1)C[C@@]1(CCCc3cc(Cl)ccc31)CO2` [Example 12, N-[(3S)-6′-Chloro-5-(cyclobutylmethyl)spiro[2,4-dihydro-1,5-benzoxazepine-3,1′-tetralin]-7-yl]sulfonylacetamide], on MCL-1 (numeric values), the Ki is 15.8 nM. The IC50 with H929 cells is > 1000 nM.
Consider `CC(C)N1CCN(CC2(O)/C=C/COC(C)(C)C(=O)NS(=O)(=O)c3ccc4c(c3)N(C[C@@H]3CC[C@H]32)C[C@@]2(CCCc3cc(Cl)ccc32)CO4)CC1` (stereo partly drawn) [Example 109, (3R,6R,8E,22S)-6′-Chloro-7-hydroxy-7-[(4-isopropylpiperazin-1-yl)methyl]-12,12-dimethyl-15,15-dioxo-spiro[11,20-dioxa-15-thia-1,14-diazatetracyclo[14.7.2.03,6.019,24]pentacosa-8,16,18,24-tetraene-22,1′-tetralin]-13-one], for which, at MCL-1 (class symbols), the Ki lay within 1 to 100 nM. The IC50 with H929 cells is > 1000 nM.
For the molecule `CO[C@H]1/C=C/CCC(=O)NS(=O)(=O)c2ccc3c(c2)N(C[C@@H]2CC[C@H]21)C[C@@]1(CCCc2cc(Cl)ccc21)CO3` [Example 75, (3R,6R,7S,8E,21S)-6′-Chloro-7-methoxy-14,14-dioxo-spiro[19-oxa-14-thia-1,13-diazatetracyclo[13.7.2.0˜3,6.0˜18,23]tetracosa-8,15,17,23-tetraene-21,1′-tetralin]-12-one], the Ki on MCL-1 (class symbols) is 1 to 100 nM. In the experiment with H929 cells, the IC50 is > 1000 nM.
For the molecule `CC1(C)OC/C=C\[C@H](O)[C@@H]2CC[C@H]2CN2C[C@@]3(CCCc4cc(Cl)ccc43)COc3ccc(cc32)S(=O)(=O)NC1=O` [Example 33, (3R,6R,7S,8Z,22S)-6′-Chloro-7-hydroxy-12,12-dimethyl-15,15-dioxo-spiro[11,20-dioxa-15-thia-1,14-diazatetracyclo[14.7.2.03,6.019,24]pentacosa-8,16,18,24-tetraene-22,1′-tetralin]-13-one], the Ki at MCL-1 (class symbols) was < 1 nM. Also, the IC50 with H929 cells was < 500 nM.
For `CN1C/C=C/[C@H](OC(=O)NCC2CC2)[C@@H]2CC[C@H]2CN2C[C@@]3(CCCc4cc(Cl)ccc43)COc3ccc(cc32)S(=O)(=O)NC(=O)C1(C)C` [Example 205, [(3R,6R,7S,8E,22S)-6′-Chloro-11,12,12-trimethyl-13,15,15-trioxo-spiro[20-oxa-15-thia-1,11,14-triazatetracyclo[14.7.2.03,6.019,24]pentacosa-8,16,18,24-tetraene-22,1′-tetralin]-7-yl] N-(cyclopropylmethyl)carbamate], on MCL-1 (class symbols), the Ki lay in the range of 1 to 100 nM. Also, the IC50 in the experiment on H929 cells was < 500 nM.
For `CO[C@H]1CCCCC(=O)NS(=O)(=O)c2ccc3c(c2)N(C[C@@H]2CC[C@H]21)C[C@@]1(CCCc2cc(Cl)ccc21)CO3` [Example 77, (3R,6R,7S,21S)-6′-Chloro-7-methoxy-14,14-dioxo-spiro[19-oxa-14-thia-1,13-diazatetracyclo[13.7.2.03,6.018,23]tetracosa-15,17,23-triene-21,1′-tetralin]-12-one], the Ki on MCL-1 (class symbols) lay within 1 to 100 nM. Besides, the half-maximal inhibitory concentration (IC50) in the experiment on H929 cells is > 1000 nM.
Turning to `CO[C@H]1/C=C/CCCC(=O)NS(=O)(=O)c2ccc3c(c2)N(C[C@@H]2CC[C@H]21)C[C@@]1(CCCc2cc(Cl)ccc21)CO3` [Example 80, (3R,6R,7S,8E,22S)-6′-Chloro-7-methoxy-15,15-dioxo-spiro[20-oxa-15-thia-1,14-diazatetracyclo[14.7.2.03,6.019,24]pentacosa-8,16(25),17,19(24)-tetraene-22,1′-tetralin]-13-one], the Ki at MCL-1 (class symbols) lay within 1 to 100 nM. The IC50 with H929 cells is > 1000 nM.
In the case of `CCN1C/C=C/[C@H](OC(=O)N(C)C)[C@@H]2CC[C@H]2CN2C[C@@]3(CCCc4cc(Cl)ccc43)COc3ccc(cc32)S(=O)(=O)NC(=O)C1(C)C` [Example 210, [(3R,6R,7S,8E,22S)-6′-Chloro-11-ethyl-12,12-dimethyl-13,15,15-trioxo-spiro[20-oxa-15-thia-1,11,14-triazatetracyclo[14.7.2.03,6.019,24]pentacosa-8,16,18,24-tetraene-22,1′-tetralin]-7-yl] N,N-dimethylcarbamate], the Ki at MCL-1 (class symbols) is < 1 nM. In addition, in the experiment with H929 cells, the IC50 is < 500 nM.
For `CCOC1CN(C(=O)O[C@H]2/C=C/COC(C)(C)C(=O)NS(=O)(=O)c3ccc4c(c3)N(C[C@@H]3CC[C@H]32)C[C@@]2(CCCc3cc(Cl)ccc32)CO4)C1` [Example 57, [(3R,6R,7S,8E,22S)-6′-Chloro-12,12-dimethyl-13,15,15-trioxo-spiro[11,20-dioxa-15-thia-1,14-diazatetracyclo[14.7.2.03,6.019,24]pentacosa-8,16,18,24-tetraene-22,1′-tetralin]-7-yl] 3-ethoxyazetidine-1-carboxylate] the same measures were < 1 nM and < 500 nM.
For `CC1(C)OC/C=C/[C@@H](OCCN2CC(F)(F)C2)[C@@H]2CC[C@H]2CN2C[C@@]3(CCCc4cc(Cl)ccc43)COc3ccc(cc32)S(=O)(=O)NC1=O` [Example 272, (3R,6R,7R,8E,22S)-6′-Chloro-7-[2-(3,3-difluoroazetidin-1-yl)ethoxy]-12,12-dimethyl-15,15-dioxo-spiro[11,20-dioxa-15-thia-1,14-diazatetracyclo[14.7.2.03,6.019,24]pentacosa-8,16,18,24-tetraene-22,1′-tetralin]-13-one] the same measures were < 1 nM and < 500 nM.
With `CN(C)CCNC(=O)O[C@H]1/C=C/COC(C)(C)C(=O)NS(=O)(=O)c2ccc3c(c2)N(C[C@@H]2CC[C@H]21)C[C@@]1(CCCc2cc(Cl)ccc21)CO3` [Example 155, [(3R,6R,7S,8E,22S)-6′-Chloro-12,12-dimethyl-13,15,15-trioxo-spiro[11,20-dioxa-15-thia-1,14-diazatetracyclo[14.7.2.03,6.019,24]pentacosa-8,16,18,24-tetraene-22,1′-tetralin]-7-yl] N-[2-(dimethylamino)ethyl]carbamate], the Ki at MCL-1 (class symbols) was < 1 nM. Moreover, the IC50 with H929 cells is < 500 nM.
In the case of `CC1(C)OC/C=C/[C@H](OCC(=O)N2CC(F)C2)[C@@H]2CC[C@H]2CN2C[C@@]3(CCCc4cc(Cl)ccc43)COc3ccc(cc32)S(=O)(=O)NC1=O` [Example 281, (3R,6R,7S,8E,22S)-6′-Chloro-7-[2-(3-fluoroazetidin-1-yl)-2-oxo-ethoxy]-12,12-dimethyl-15,15-dioxo-spiro[11,20-dioxa-15-thia-1,14-diazatetracyclo[14.7.2.03,6.019,24]pentacosa-8,16,18,24-tetraene-22,1′-tetralin]-13-one], the Ki at MCL-1 (class symbols) is < 1 nM. Moreover, the IC50 with H929 cells was < 500 nM.
Regarding `COCCN(C)C(=O)O[C@H]1/C=C/COC(C)(C)C(=O)NS(=O)(=O)c2ccc3c(c2)N(C[C@@H]2CC[C@H]21)C[C@@]1(CCCc2cc(Cl)ccc21)CO3` [Example 159, [(3R,6R,7S,8E,22S)-6′-Chloro-12,12-dimethyl-13,15,15-trioxo-spiro[11,20-dioxa-15-thia-1,14-diazatetracyclo[14.7.2.03,6.019,24]pentacosa-8,16,18,24-tetraene-22,1′-tetralin]-7-yl] N-(2-methoxyethyl)-N-methyl-carbamate], on MCL-1 (class symbols), the Ki is < 1 nM. For the same molecule, the IC50 in the experiment with H929 cells is < 500 nM.
For `CC1(C)OC/C=C/[C@H](OC(=O)NCCN2CCOCC2)[C@@H]2CC[C@H]2CN2C[C@@]3(CCCc4cc(Cl)ccc43)COc3ccc(cc32)S(=O)(=O)NC1=O` [Example 180, [(3R,6R,7S,8E,22S)-6′-Chloro-12,12-dimethyl-13,15,15-trioxo-spiro[11,20-dioxa-15-thia-1,14-diazatetracyclo[14.7.2.03,6.019,24]pentacosa-8,16,18,24-tetraene-22,1′-tetralin]-7-yl] N-(2-morpholinoethyl)carbamate] the same measures were < 1 nM and < 500 nM.
Consider `CC1(C)OC/C=C/[C@H](OC(=O)NCCN2CCCCC2)[C@@H]2CC[C@H]2CN2C[C@@]3(CCCc4cc(Cl)ccc43)COc3ccc(cc32)S(=O)(=O)NC1=O` [Example 193, [(3R,6R,7S,8E,22S)-6′-Chloro-12,12-dimethyl-13,15,15-trioxo-spiro[11,20-dioxa-15-thia-1,14-diazatetracyclo[14.7.2.03,6.019,24]pentacosa-8,16,18,24-tetraene-22,1′-tetralin]-7-yl] N-[2-(1-piperidyl)ethyl]carbamate], for which, at MCL-1 (class symbols), the Ki lay in the range of 1 to 100 nM. In the experiment on H929 cells, the half-inhibitory concentration (IC50) is < 500 nM.
On to `CN[C@H]1CCN(C(=O)O[C@H]2/C=C/COC(C)(C)C(=O)NS(=O)(=O)c3ccc4c(c3)N(C[C@@H]3CC[C@H]32)C[C@@]2(CCCc3cc(Cl)ccc32)CO4)C1` [Example 163, [(3R,6R,7S,8E,22S)-6′-Chloro-12,12-dimethyl-13,15,15-trioxo-spiro[11,20-dioxa-15-thia-1,14-diazatetracyclo[14.7.2.03,6.019,24]pentacosa-8,16,18,24-tetraene-22,1′-tetralin]-7-yl] (3S)-3-(methylamino)pyrrolidine-1-carboxylate], for which the Ki on MCL-1 (class symbols) is < 1 nM. In addition, the IC50 in the experiment on H929 cells was < 500 nM.
In the same order, the values of `CO[C@@H]1/C=C/C[C@H](C)CC(=O)NS(=O)(=O)c2ccc3c(c2)N(C[C@@H]2CC[C@H]21)C[C@@]1(CCCc2cc(Cl)ccc21)CO3` [Example 71, (3R,6R,7R,8E,11S,22S)-6′-Chloro-7-methoxy-11-methyl-15,15-dioxo-spiro[20-oxa-15-thia-1,14-diazatetracyclo[14.7.2.03,6.019,24]pentacosa-8,16(25),17,19(24)-tetraene-22,1′-tetralin]-13-one] are 1 to 100 nM and > 1000 nM.

These data come from patent US11130769B2 (Prelude Therapeutics Incorporated, priority 2018, dated 2021).
